Data taken from patent US11382985B2, “Anti-tumour immune responses to modified self-epitopes” (Scancell Limited, priority 2015, dated 2022).
Square brackets hold non-standard residues; d marks the D form. Ends that are not written are not given here. Cit = NC(=O)NCCC[C@H](N)C(=O)O

Legend:
splenocytes [1] = test: Peptide immunisation and ex vivo Elispot, DP4 mice; assay type: in vivo, HHD/HLA-DP4 transgenic mouse
Method: (§1) C57BL/6 mice (Charles River, UK), HLA-DR4 mice (Taconic, USA), HHDII/DR1 mice (Pasteur institute, France) and the HHD/HLA-DP4 transgenic strain of mouse as described in patent WO2013/017545 A1 (EMMA repository, France) were used, aged between 8 and 12 weeks, and cared for by the staff at Nottingham Trent University. All work was carried out under a Home Office project licence. Peptides were dissolved in PBS to 1 mg/ml and then emulsified (a series of dilutions) with different adjuvants: CpG and MPLA 6 μg/mouse of each (Invivogen, UK), Incomplete Freund's 50 μl/mouse (Sigma, UK), poly I:C 10 μg/mouse (Invivogen, UK), Imiquimod 25 μg/mouse (Invivogen, UK) and GMCSF 10 μg/mouse (Peprotech, UK). Peptides (25 μg/mouse) were injected subcutaneously at the base of the tail. DNA (1 μg/mouse) was coated onto 1.0 μm gold particles (BioRad, Hemel Hempstead, UK) using the manufacturer's instructions and administered intradermally by genegun (BioRad). Homspera (10 nM/mouse) (PeptideSynthetics, UK) was injected intradermally with genegun immunisation. Mice were immunized at either day 0 for peptide immunisation or days, 0 and 7 for genegun immunisation, unless otherwise stated. Spleens were removed for analysis at day 14 for peptide and day 20 for peptide or genegun immunisation unless stated otherwise.
(§2) Elispot assays were performed using murine IFNγ, IL-17 and IL-10 capture and detection reagents according to the manufacturer's instructions (Mabtech, Sweden). In brief, anti-IFNγ, IL-17 and IL-10 antibodies were coated onto wells of 96-well Immobilin-P plate. Synthetic peptides (at a variety of concentrations) and 5×10^5 per well splenocytes were added to the wells of the plate in triplicate. Tumour target cells were added where relevant at 5×10^4/well in triplicate and plates incubated for 40 hrs at 37° C. After incubation, captured IFN and IL-10 were detected by biotinylated anti-IFNγ and IL-10 antibodies and developed with a streptavidin alkaline phosphatase and chromogenic substrate. Spots were analysed and counted using an automated plate reader (Cellular Technologies Ltd).

splenocytes [2] = test: Screening of citrullinated Enolase peptide pools, ex vivo IFNγ Elispot, DR4 mice; assay type: in vivo, transgenic DR4 mouse; conditions: single immunisation with pool of 4-6 human citrullinated peptides, 20 μg each, CpG/MPLA, day 14, label = peptide used for restimulation
Method: C57BL/6 mice (Charles River, UK), HLA-DR4 mice (Taconic, USA), HHDII/DR1 mice (Pasteur institute, France) and the HHD/HLA-DP4 transgenic strain of mouse as described in patent WO2013/017545 A1 (EMMA repository, France) were used, aged between 8 and 12 weeks, and cared for by the staff at Nottingham Trent University. All work was carried out under a Home Office project licence. Peptides were dissolved in PBS to 1 mg/ml and then emulsified (a series of dilutions) with different adjuvants: CpG and MPLA 6 μg/mouse of each (Invivogen, UK), Incomplete Freund's 50 μl/mouse (Sigma, UK), poly I:C 10 μg/mouse (Invivogen, UK), Imiquimod 25 μg/mouse (Invivogen, UK) and GMCSF 10 μg/mouse (Peprotech, UK). […]
Elispot assays were performed using murine IFNγ, IL-17 and IL-10 capture and detection reagents according to the manufacturer's instructions (Mabtech, Sweden). […] After incubation, captured IFN and IL-10 were detected by biotinylated anti-IFNγ and IL-10 antibodies and developed with a streptavidin alkaline phosphatase and chromogenic substrate. Spots were analysed and counted using an automated plate reader (Cellular Technologies Ltd).
Screening was performed to identify potential citrullinated Enolase epitopes in mice. […] After 14 days the mice were culled and the immune responses to each peptide within the immunising pool were assessed by ex vivo Elispot (FIG. 2). […]

splenocytes [3] = test: Peptide immunisation and ex vivo Elispot, DR4 mice; assay type: in vivo, HLA-DR4 transgenic mouse; conditions: for IFNγ response to 15mer peptide spanning 241-260: label = 15mer used for restimulation; for IFNγ response to the human sequence / IFNγ response to the mouse sequence: single immunisation of the human citrullinated peptide
Method: as §1, §2

splenocytes [4] = test: Screening of citrullinated Enolase peptide pools, ex vivo IFNγ Elispot, HHD/DR1 mice; assay type: in vivo, transgenic HHD/DR1 mouse; conditions: single immunisation with pool of 4-6 human citrullinated peptides, 20 μg each, CpG/MPLA, day 14, label = peptide used for restimulation
Method: as §1, §2
(§3) Screening was performed to identify potential citrullinated Enolase epitopes in mice. Mice were immunised with pools of 4-6 human citrullinated peptides. […] Each pool was administered as a single immunisation containing 20 μg of each peptide and CpG/MPLA as an adjuvant. After 14 days the mice were culled and the immune responses to each peptide within the immunising pool were assessed by ex vivo Elispot (FIG. 2). In addition, the splenocytes were screened against the murine equivalent sequences. We have previously shown that citrullinated peptides can induce responses in the transgenic DR4 mouse strain. Given that different mouse strains have different MHC repertoires a number of strains were used for screening. Peptide responses were assessed in C57BL/6 mice as well as transgenic strains expressing human DR4 or HHD/DR1 in a C57BL/6 background (see materials and methods).

splenocytes [5] = test: Screening of citrullinated Enolase peptide pools, ex vivo IFNγ Elispot, C57BL/6 mice; assay type: in vivo, C57BL/6 mouse; conditions: single immunisation with pool of 4-6 human citrullinated peptides, 20 μg each, CpG/MPLA, day 14, label = peptide used for restimulation
Method: as §1, §2, §3

splenocytes [6] = test: Peptide immunisation and ex vivo Elispot, DR1/HHD mice; assay type: in vivo, HHD/DR1 transgenic mouse; conditions: single immunisation of the human citrullinated peptide
Method: as §1, §2

splenocytes [7] = test: Peptide immunisation and ex vivo Elispot, C57Bl/6 mice; assay type: in vivo, C57Bl/6 mouse; conditions: C57Bl/6 mice immunised with the human citrullinated peptide
Method: as §1, §2

[8] = DR4 mice immunised with human 241cit

Substance: VIGMDVAASEFY-CIT-SGKYDLD (VIGMDVAASEFY[Cit]SGKYDLD) [mouse 241cit]
- IFNγ response compared to the wild type peptides (splenocytes [1]; DP4 mice, three doses of human Enolase 241cit, label = restimulating peptide): increased IFNγ responses
- IFNγ responses to citrullinated and wildtype peptide (splenocytes [1]; DP4 transgenic mice immunised with the murine peptide, three doses): specific to the citrullinated peptide but not the wildtype
- IFNγ response to peptide compared to media (splenocytes [2]): significant response
- IFNγ response in presence of human MHC class II blocking antibody (L243) (splenocytes [3]; DR4 mice immunised with human 241cit, label = restimulating peptide): significantly reduced
- time after immunisation at which IFNγ response is detectable (splenocytes [3]; DR4 mice, single dose in CpG/MPLA, sacrificed after 2, 6 or 14 days): 2 days

Substance: MSILRIHA-CIT-EIFDSRGNPTV [mouse 1cit]
- IFNγ response to peptide compared to media (splenocytes [4]): did induce a response

Substance: VGDDLTVTNPK-CIT-IAKAASEK [mouse 316cit]
- IFNγ response to peptide compared to media (splenocytes [4]): not

Substance: aa241-255: 15mer peptide spanning the Enolase 241-260 sequence (VIGMDVAASEFFRSG; UniProt P06733 241-255, looked up, fragment)
- IFNγ response to 15mer peptide spanning 241-260 (splenocytes [3]; [8]): stimulating specific responses

Substance: FKSPDDPS-CIT-YITPDQLADLY [mouse 261cit]
- IFNγ response to peptide compared to media (splenocytes [5]): not

Substance: KGVPLY-CIT-HIADLAGNPEVIL [mouse 126cit]
- IFNγ response to peptide compared to media (splenocytes [5]): significant response
- IFNγ response to peptide compared to media (splenocytes [4]): not

Substance: MSILKIHA-CIT-EIFDSRGNPTV [Enolase 1-20]
- IFNγ response to peptide compared to media (splenocytes [4]): did not induced a significant response

Substance: EVDLYTAKGLF-CIT-AAVPSGAS [mouse 21cit]
- IFNγ response to peptide compared to media (splenocytes [5]): not

Substance: aa246-260: 15mer peptide spanning the Enolase 241-260 sequence (VAASEFFRSGKYDLD; UniProt P06733 246-260, looked up, fragment)
- IFNγ response to 15mer peptide spanning 241-260 (splenocytes [3]; [8]): no response

Substance: KGVPLY-CIT-HIADLAGNSEVIL [Enolase 126cit]
- IFNγ response to peptide compared to media (splenocytes [5]): not
- IFNγ response to peptide compared to media (splenocytes [4]): significant response
- IFNγ response to the human sequence (splenocytes [3]; DR4 mice): low level significant response
- IFNγ response to the human sequence (splenocytes [6]): not

Substance: VGDDLTVTNPK-CIT-IAKAVNEK [Enolase 316cit]
- IFNγ response to peptide compared to media (splenocytes [4]): significant response
- IFNγ response to the human sequence (splenocytes [3]; DR4 mice): moderate response
- IFNγ response to the mouse sequence (splenocytes [3]; DR4 mice): not
- IFNγ response to the human sequence (splenocytes [6]): moderate response
- IFNγ response to the mouse sequence (splenocytes [6]): not

Substance: IFDScitGNPTVEVDLF [enolase 11cit]
- IFN response to the equivalent murine sequence (splenocytes [7]): cross reacted
- IFNγ response in presence of CD4 blocking antibody (splenocytes [7]): abrogated the response
- IFNγ response in presence of CD8 blocking antibody (splenocytes [7]): no effect
- IFNγ response to the citrullinated peptide (splenocytes [7]): IFN responses
- IFNγ response to the wt peptide (splenocytes [7]): minimal reactivity
- IL-10 response to the citrullinated peptide (splenocytes [7]): No IL-10 responses

Substance: FKSPDDPS-CIT-YISPDQLADLY [human 261cit]
- IFNγ response to peptide compared to media (splenocytes [5]): significant response

Substance: EVDLFTSKGLF-CIT-AAVPSGAS [Enolase 21cit]
- IFNγ response to peptide compared to media (splenocytes [5]): significant response
- IFNγ response in presence of CD4 blocking antibody (splenocytes [7]): efficiently blocked
- IFNγ response in presence of CD8 blocking antibody (splenocytes [7]): not
- IFNγ response to the citrullinated peptide (splenocytes [7]): strong IFNγ responses
- IFNγ response to the human sequence (splenocytes [3]; DR4 mice): not
- IFNγ response to the mouse sequence (splenocytes [3]; DR4 mice): low level but significant response
